Patent publication US8853193B2, “Thienopyrimidines containing a substituted alkyl group for pharmaceutical compositions” (Boehringer Ingelheim International GmbH, priority 2010, dated 2014)
Where a name gives a salt, the structure may show the parent alone.

The compounds below were run against human Mnk2a (Homo sapiens (Human), UniProt Q9HBH9) (assay: Mnk2a in vitro kinase assay (indirect competitive fluorescence polarization)). Conditions: pre-activated GST-Mnk2a 2.5 nM, 20 μM ATP, 30 μM substrate peptide; read-out: MNK2 IC50.
Sequence of human Mnk2a (Q9HBH9 whole entry): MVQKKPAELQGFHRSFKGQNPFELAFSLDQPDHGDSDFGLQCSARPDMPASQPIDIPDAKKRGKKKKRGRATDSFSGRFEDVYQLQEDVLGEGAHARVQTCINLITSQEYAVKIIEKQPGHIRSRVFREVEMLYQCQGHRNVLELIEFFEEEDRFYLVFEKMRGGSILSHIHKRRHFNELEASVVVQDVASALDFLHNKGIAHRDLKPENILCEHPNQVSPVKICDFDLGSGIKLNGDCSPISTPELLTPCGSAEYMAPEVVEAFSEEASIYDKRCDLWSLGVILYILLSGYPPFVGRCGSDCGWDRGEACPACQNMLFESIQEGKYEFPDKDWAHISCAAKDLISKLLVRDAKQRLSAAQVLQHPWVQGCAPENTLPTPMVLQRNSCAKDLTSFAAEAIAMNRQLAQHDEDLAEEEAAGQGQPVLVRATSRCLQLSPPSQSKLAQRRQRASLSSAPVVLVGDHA
Assay type: biochemical
In short: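 GST-tagged human Mnk2a expressed in E. coli and glutathione-purified, then activated at 2.5 μM with 150 nM pre-activated NHis-ERK2 and 50 μM ATP in HEPES/KOH pH 7.4, MgCl2, DTT, Brij 78 for 45 min at 30 °C. Phospho-peptide product read by indirect competitive fluorescence polarization against fluorophore-labelled phospho-peptide bound to phospho-specific antibody.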

Row | IC50 [nM] | SMILES
1 | 35 | Cc1c(C(=O)NCCCN(C)C)sc2ncnc(Nc3ccc(F)cc3OCC(C)F)c12 (stereo not drawn) [Compound 32-39]
2 | 25 | Cc1c(C(=O)NCC2CNCCO2)sc2ncnc(Nc3cccnc3OC(C)C)c12 (stereo not drawn) [Compound 36-5, 4-(2-Isopropoxypyridin-3-ylamino)-5-methyl-N-(morpholin-2ylmethyl) thieno[2,3-d]pyrimidine-6-carboxamide]
3 | 45 | Cc1c(C(=O)NCCCO)sc2ncnc(Nc3cccnc3OC(C)C)c12 [Compound 36-11, N-(3-Hydroxypropyl)-4-(2-isopropoxypyridin-3ylamino)-5-methylthieno[2,3-d]pyrimidine-6-carboxamide]
4 | 170 | Cc1c(C(=O)NCCO)sc2ncnc(Nc3ccc(F)cc3OC(CO)CO)c12 [Compound 32-29]
5 | 14 | Cc1c(C(=O)O)sc2ncnc(Nc3ccc(F)cc3OCCC(F)(F)F)c12 [Compound 32-11]
6 | 23 | Cc1c(C(=O)NCCCN(C)C)sc2ncnc(Nc3ccc(F)cc3OCC(F)F)c12 [Compound 32-19]
7 | 69 | Cc1c(C(=O)NCCCN(C)C)sc2ncnc(Nc3ccc(F)cc3OCCO)c12 [Compound 32-34]
8 | 16 | Cc1c(C(N)=O)sc2ncnc(Nc3cccnc3OCC3(CC#N)CC3)c12 [Compound 33-4]
9 | 19 | Cc1c(C(=O)NCCO)sc2ncnc(Nc3ccc(F)cc3OCC3CC3(F)F)c12 (stereo not drawn) [Compound 32-20]
10 | 15 | Cc1c(C(N)=O)sc2ncnc(Nc3cccnc3OCC3CC3(F)F)c12 (stereo not drawn) [Compound 34-4]
11 | 27 | Cc1c(C(N)=O)sc2ncnc(Nc3ccc(F)cc3OCCO)c12 [Compound 32-32]
12 | 32 | Cc1c(C(=O)NC2CCN(C)CC2)sc2ncnc(Nc3cccnc3OC(C)C)c12 [Compound 36-10, 4-(2-Isopropoxypyridin-3ylamino)-5-methyl-N-(1-methylpiperidin-4-yl)thieno[2,3-d]pyrimidine-6-carboxamide]
13 | 12 | Cc1c(C(=O)NCCC2CCN(C)C2)sc2ncnc(Nc3ccc(F)cc3OC(C)CF)c12 (stereo not drawn) [Compound 32-43]

Second part, the compound before the results:

Row | SMILES | IC50 [nM]
14 | CCOCC(COCC)Oc1cc(F)ccc1Nc1ncnc2sc(C(N)=O)c(C)c12 [Compound 22-3, 4-(2-(1,3-Diethoxypropan-2-yloxy)-4-fluorophenylamino)-5-methyl-thieno[2,3-d]pyrimidine-6-carboxamide] | 296
15 | COC(=O)c1sc2ncnc(Nc3ccc(F)cc3OC(C)CCNC(=O)C(C)C)c2c1C (stereo not drawn) [Compound 13-3, Methyl 4-(4-fluoro-2-(4-isobutyramido-butan-2-yloxy)-phenylamino)-5-methylthieno[2,3-d]pyrimidine-6-carboxylate] | 677
16 | Cc1c(C(=O)NCCCN(C)C)sc2ncnc(Nc3ccc(C#N)cc3OC(CF)CF)c12 [Compound 49, 4-(4-Cyano-2-(2-fluoro-1-fluoromethyl-ethoxy)-phenylamino]-5-methyl-thieno[2,3-d]pyrimidine-6-carboxylic acid (3-dimethylamino-propyl)-amide] | 8
17 | Cc1c(C(=O)O)sc2ncnc(Nc3cccnc3OC(C)C(F)(F)F)c12 (stereo not drawn) [Compound 21-2, 5-Methyl-4-(2-(1,1,1-trifluoropropan-2-yloxy)pyridin-3-ylamino)thieno[2,3-d]pyrimidine-6-carboxylic acid] | 15
18 | Cc1c(C(=O)NCCO)sc2ncnc(Nc3cccnc3OC(C)CCNS(C)(=O)=O)c12 (stereo not drawn) [Compound 43, 4-[2-(3-Methanesulfonylamino-1-methyl-propoxy)-pyridin-3-ylamino]-5-methyl-thieno[2,3-d]pyrimidine-6-carboxylic acid (2-hydroxy-ethyl)-amide] | 62
19 | Cc1c(C(N)=O)sc2ncnc(Nc3cccnc3OCC(F)F)c12 [Compound 30-3, 4-(2-(2,2-Difluoroethoxy)pyridin-3-ylamino)-5-methyl-thieno[2,3-d]pyrimidine-6-carboxamide] | 18
20 | Cc1c(C(=O)NCCN(C)C)sc2ncnc(Nc3ccc(F)cc3OC(CF)CF)c12 [Compound 23-7, 4-(2-(1,3-difluoro-propan-2-yloxy)-4-fluorophenylamino)-N-(2-(dimethylamino)-ethyl)-5-methylthieno-[2,3-d]-pyrimidine-6-carboxamide] | 17
21 | Cc1c(C(=O)NCCO)sc2ncnc(Nc3ccc(C#N)cc3OC(CF)CF)c12 [Compound 51, 4-(4-Cyano-2-(2-fluoro-1-fluoromethyl-ethoxy)-phenylamino]-5-methyl-thieno[2,3-d]pyrimidine-6-carboxylic acid (2-hydroxy-ethyl)-amide] | 10
22 | COC(=O)c1sc2ncnc(Nc3ccc(F)cc3OC(C)CNC(=O)C(C)C)c2c1C (stereo not drawn) [Compound 3-5, Methyl 4-(4-fluoro2-(1-isobutyramidopropan-2-yloxy)phenylamino)-5-methylthieno[2,3-d]-pyrimidine-6-carboxylate] | 443
23 | Cc1c(C(=O)NCCO)sc2ncnc(Nc3ccc(F)cc3OC(C)CN)c12 (stereo not drawn) [Compound 2-3, 4-(2-(1-Amino-propan-2-yloxy)-4-fluorophenylamino)-N-(2-hydroxy-ethyl)-5-methyl-thieno[2,3-d]-pyrimidine-6-carboxamide] | 50
24 | COC(=O)c1sc2ncnc(Nc3ccc(F)cc3OC(C)CNS(C)(=O)=O)c2c1C (stereo not drawn) [Compound 3-1, Methyl 4-(4-fluoro-(2-(1-methylsulfonamido)propan-2-yloxy)phenylamino)-5-methyl-thieno[2,3-d]pyrimidine-6-carboxylate] | 41
25 | COC(=O)c1sc2ncnc(Nc3ccc(F)cc3OC(C)CN)c2c1C (stereo not drawn) [Compound 2-1, Methyl 4-(2-(1-aminopropan-2-yloxy)-4-fluorophenylamino)-5-methyl-thieno[2,3-d]pyrimidine-6-carboxylate trifluoroacetate] | 70
26 | CNC(=O)c1sc2ncnc(Nc3ccc(F)cc3OC(C)CNC(=O)OC(C)(C)C)c2c1C (stereo not drawn) [Compound 1-3, tert-Butyl 2-(5-fluoro-2-(5-methyl-6-(methylcarbamoyl)thieno[2,3-d]pyrimidin-4-ylamino)phenoxy)propylcarbamate] | 342
27 | Cc1c(C(=O)NCCCN(C)C)sc2ncnc(Nc3ccc(F)cc3OC(CF)CF)c12 [Compound 23-6, 4-(2-(1,3-difluoro-propan-2-yloxy)-4-fluorophenylamino)-N-(3-(dimethylamino)-propyl)-5-methyl-thieno[2,3-d]-pyrimidine-6-carboxamide] | 10
28 | Cc1c(C(=O)N[C@@H]2C[C@H]2N)sc2ncnc(Nc3ccc(F)cc3OC(CF)CF)c12 (relative stereo) [Compound 25, N-((trans)-2-Aminocyclopropyl)-4-(2-(1,3-difluoropropan-2-yloxy)-4-fluorophenylamino)-5-methylthieno[2,3-d]pyrimidine-6-carboxamide hydrochloride] | 12
29 | COC(=O)c1sc2ncnc(Nc3ccc(F)cc3OCCN)c2c1C [Compound 9-2, Methyl 4-(2-(2-aminoethoxy)-4-fluorophenylamino)-5-methyl-thieno[2,3-d]pyrimidine-6-carboxylate hydrochloride] | 577
30 | Cc1c(C(=O)NCCCN(C)C)sc2ncnc(Nc3cccnc3OCCO)c12 [Compound 29-4, N-(3-(dimethyl-amino)propyl)-4-(2-(2-hydroxy-ethoxy)pyridin-3-ylamino)-5-methylthieno[2,3-d]pyrimidine-6-carboxamide hydrochloride] | 288
31 | Cc1c(C(=O)NCCCN(C)C)sc2ncnc(Nc3cccnc3OC(C)CCNS(C)(=O)=O)c12 (stereo not drawn) [Compound 46, 4-[2-(3-Methanesulfonylamino-1-methyl-propoxy)-pyridin-3-ylamino]-5-methyl-thieno[2,3-d]pyrimidine-6-carboxylic acid (3-dimethylamino-propyl)-amide] | 84
32 | Cc1c(C(=O)NCCCN(C)C)sc2ncnc(Nc3ccc(F)cc3OC(C)C#N)c12 (stereo not drawn) [Compound 63] | 17
33 | COC(=O)c1sc2ncnc(Nc3cccnc3OC(C)CCN)c2c1C (stereo not drawn) [Compound 15-2, Methyl 4-(2-((4-aminobutan-2yloxy)pyridin-3ylamino)-5-methyl-thieno[2,3-d]pyrimidine-6-carboxylate trifluoroacetate] | 174
34 | COC(=O)c1sc2ncnc(Nc3ccc(F)cc3OC(C)C(=O)O)c2c1C (stereo not drawn) [Compound 55, 4-[2-(1-Carboxy-ethoxy)-4-fluoro-phenylamino]-5-methyl-thieno[2,3-d]pyrimidine-6-carboxylic acid methyl ester] | 5400
35 | Cc1c(C(=O)NC2CCN(C)CC2)sc2ncnc(Nc3cccnc3OC(C)C(F)(F)F)c12 (stereo not drawn) [Compound 21-4, 5-methyl-N-(1-methylpiperidin-4-yl)-4-(2-(1,1,1-trifluoropropan-2-yloxy)pyridin-3-ylamino)thieno[2,3-d]pyrrimidine-6-carboxamide] | 54
36 | Cc1c(C(=O)NCCCN(C)C)sc2ncnc(Nc3cccnc3OC(C)CCN)c12 (stereo not drawn) [Compound 16-3, 4-(2-(4-Aminobutan-2yloxy)pyridin-3-ylamino)-N-(3-(dimethylamino)propyl)-5-methylthieno[2,3-d]pyrimidine-6-carboxamide bis(2,2,2-trifluoroacetate)] | 74
37 | Cc1c(C(=O)NCC#CCN(C)C)sc2ncnc(Nc3ccc(F)cc3OC(CF)CF)c12 [Compound 23-9, 4-(2-(1,3-difluoro-propan-2-yloxy)-4-fluorophenylamino)-N-(4-(dimethylamino)-but-2ynyl)-5-methyl-thieno[2,3-d]pyrimidine-6-carboxamide] | 7
38 | CNC(=O)c1sc2ncnc(Nc3ccc(F)cc3OC(C)CN)c2c1C (stereo not drawn) [Compound 2-4, 4-(2-(1-Amino-propan-2-yloxy)-4-fluorophenylamino)-N-5-methyl-thieno[2,3-d]-pyrimidin-6-carboxamide trifluoroacetate] | 23
39 | Cc1c(C(=O)NCCCN(C)C)sc2ncnc(Nc3cccnc3OCC3CC3(F)F)c12 (stereo not drawn) [Compound 34, 4-(2-((2,2-Difluorocyclopropyl)methoxy)pyridin-3-ylamino)-N-(3-(dimethylamino)propyl)-5-methylthieno[2,3-d]pyrimidine-6-carboxamide hydrochloride] | 54
